For 1 compound, Activity results are on record in ChEMBL document CHEMBL1155575, “Kirkinine, a new daphnane orthoester with potent neurotrophic activity from Synaptolepis kirkii” (2000).

What all share (type): functional, Gallus gallus
A short description of experiment [1]: Neurotrophic activity against chick embryo dorsal root ganglion assessed as neuronal viability at 70 nM after 2 days by Calcein-AM assay.
The nature of experiment [2]: Neurotrophic activity against chick embryo dorsal root ganglion assessed as neuronal viability at 700 nM after 2 days by Calcein-AM assay.
The nature of experiment [3]: Neurotrophic activity against chick embryo dorsal root ganglion assessed as neuronal viability at 7000 nM after 2 days by Calcein-AM assay.

As to `C=C(C)[C@@]12O[C@@]3(/C=C/CCCCCCCCCCCCC)O[C@@H]1[C@@H]1[C@@H]4O[C@]4(CO)[C@@H](O)[C@]4(O)C(=O)C(C)=C[C@H]4[C@@]1(O3)[C@H](C)[C@H]2OC(C)=O` [KIRKININE], the Activity was 57% in experiment [1], 103% in experiment [2] and 142% in experiment [3].
